From ChEMBL document CHEMBL4507272 (2021)

Experiments:
[1] = molecular target: Insulin receptor-related protein (Homo sapiens) (UniProt P14616); conditions: Compound concentration 1000.0 nM
[2] = molecular target: G protein-coupled receptor kinase 4 (Homo sapiens) (UniProt P32298); conditions: Compound concentration 1000.0 nM
[3] = molecular target: Death-associated protein kinase 1 (Homo sapiens) (UniProt P53355); conditions: Compound concentration 1000.0 nM
[4] = molecular target: Serine/threonine-protein kinase N1 (Homo sapiens) (UniProt Q16512); conditions: Compound concentration 1000.0 nM
[5] = molecular target: Myosin light chain kinase family member 4 (Homo sapiens) (UniProt Q86YV6); conditions: Compound concentration 1000.0 nM
[6] = molecular target: Calcium/calmodulin-dependent protein kinase type II subunit beta (Homo sapiens) (UniProt Q13554); conditions: Compound concentration 1000.0 nM
[7] = molecular target: TGF-beta receptor type-2 (Homo sapiens) (UniProt P37173); conditions: Compound concentration 1000.0 nM
[8] = molecular target: Mitogen-activated protein kinase 1 (Homo sapiens) (UniProt P28482); conditions: Compound concentration 1000.0 nM
[9] = molecular target: Sodium-dependent serotonin transporter (Homo sapiens) (UniProt P31645); conditions: Compound concentration 10.0 uM
[10] = tested on: Tyrosine-protein kinase ABL1 (Homo sapiens), P00519 [Q252H]; conditions: Compound concentration 1000.0 nM
[11] = molecular target: Receptor-interacting serine/threonine-protein kinase 1 (Homo sapiens) (UniProt Q13546); conditions: Compound concentration 1000.0 nM
[12] = molecular target: Dual specificity testis-specific protein kinase 1 (Homo sapiens) (UniProt Q15569); conditions: Compound concentration 1000.0 nM
[13] = molecular target: Dual specificity mitogen-activated protein kinase kinase 7 (Homo sapiens) (UniProt O14733); conditions: Compound concentration 1000.0 nM
Dual specificity mitogen-activated protein kinase kinase 7 (Homo sapiens), sequence (O14733 whole entry): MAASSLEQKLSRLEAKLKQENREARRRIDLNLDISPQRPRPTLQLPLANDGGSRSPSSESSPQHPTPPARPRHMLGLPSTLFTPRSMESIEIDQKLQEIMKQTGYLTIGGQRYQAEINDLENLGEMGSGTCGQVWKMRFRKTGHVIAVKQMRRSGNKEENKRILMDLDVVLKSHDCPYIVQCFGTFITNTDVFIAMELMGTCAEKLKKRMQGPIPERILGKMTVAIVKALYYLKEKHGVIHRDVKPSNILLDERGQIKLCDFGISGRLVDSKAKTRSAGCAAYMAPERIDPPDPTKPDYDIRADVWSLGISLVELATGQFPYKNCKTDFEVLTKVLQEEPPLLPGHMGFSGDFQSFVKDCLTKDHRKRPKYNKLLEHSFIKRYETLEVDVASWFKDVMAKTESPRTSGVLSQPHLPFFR

[14] = molecular target: Serine/threonine-protein kinase WNK4 (Homo sapiens) (UniProt Q96J92); conditions: Compound concentration 1000.0 nM
[15] = tested on: Proto-oncogene tyrosine-protein kinase receptor Ret (Homo sapiens), P07949 [V804M]; conditions: Compound concentration 1000.0 nM
Proto-oncogene tyrosine-protein kinase receptor Ret (Homo sapiens), P07949 [V804M], sequence (P07949 whole entry V804M): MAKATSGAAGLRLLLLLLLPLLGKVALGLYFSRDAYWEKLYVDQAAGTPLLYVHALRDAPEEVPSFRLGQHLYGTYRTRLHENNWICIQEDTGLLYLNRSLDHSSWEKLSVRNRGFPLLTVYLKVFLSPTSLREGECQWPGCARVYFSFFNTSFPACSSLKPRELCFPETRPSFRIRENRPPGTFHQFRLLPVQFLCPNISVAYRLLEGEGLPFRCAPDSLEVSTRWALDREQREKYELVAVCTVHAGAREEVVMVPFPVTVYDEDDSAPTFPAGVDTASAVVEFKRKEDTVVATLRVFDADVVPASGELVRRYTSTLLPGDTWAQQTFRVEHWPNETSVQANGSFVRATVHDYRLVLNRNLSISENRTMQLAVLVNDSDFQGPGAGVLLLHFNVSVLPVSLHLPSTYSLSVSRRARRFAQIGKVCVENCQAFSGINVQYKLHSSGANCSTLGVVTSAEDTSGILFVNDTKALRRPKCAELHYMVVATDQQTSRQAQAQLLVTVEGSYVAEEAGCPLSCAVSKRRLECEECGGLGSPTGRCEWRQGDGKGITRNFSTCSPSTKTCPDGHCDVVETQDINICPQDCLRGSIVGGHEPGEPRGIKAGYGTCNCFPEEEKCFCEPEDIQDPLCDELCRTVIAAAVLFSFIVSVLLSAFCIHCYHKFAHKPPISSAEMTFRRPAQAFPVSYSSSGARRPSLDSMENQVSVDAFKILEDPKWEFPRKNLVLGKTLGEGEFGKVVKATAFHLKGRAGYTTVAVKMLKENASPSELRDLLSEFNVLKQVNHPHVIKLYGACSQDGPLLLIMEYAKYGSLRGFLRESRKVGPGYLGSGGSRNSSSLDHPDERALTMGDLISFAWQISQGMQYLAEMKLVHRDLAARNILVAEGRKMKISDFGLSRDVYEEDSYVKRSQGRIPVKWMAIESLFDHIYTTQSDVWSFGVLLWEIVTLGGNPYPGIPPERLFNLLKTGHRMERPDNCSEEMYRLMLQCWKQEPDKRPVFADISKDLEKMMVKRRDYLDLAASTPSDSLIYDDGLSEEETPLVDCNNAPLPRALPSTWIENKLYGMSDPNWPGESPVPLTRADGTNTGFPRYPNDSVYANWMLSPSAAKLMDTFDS

[16] = molecular target: Serine/threonine-protein kinase SIK2 (Homo sapiens) (UniProt Q9H0K1); conditions: Compound concentration 1000.0 nM
Serine/threonine-protein kinase SIK2 (Homo sapiens), sequence (Q9H0K1 whole entry, looked up): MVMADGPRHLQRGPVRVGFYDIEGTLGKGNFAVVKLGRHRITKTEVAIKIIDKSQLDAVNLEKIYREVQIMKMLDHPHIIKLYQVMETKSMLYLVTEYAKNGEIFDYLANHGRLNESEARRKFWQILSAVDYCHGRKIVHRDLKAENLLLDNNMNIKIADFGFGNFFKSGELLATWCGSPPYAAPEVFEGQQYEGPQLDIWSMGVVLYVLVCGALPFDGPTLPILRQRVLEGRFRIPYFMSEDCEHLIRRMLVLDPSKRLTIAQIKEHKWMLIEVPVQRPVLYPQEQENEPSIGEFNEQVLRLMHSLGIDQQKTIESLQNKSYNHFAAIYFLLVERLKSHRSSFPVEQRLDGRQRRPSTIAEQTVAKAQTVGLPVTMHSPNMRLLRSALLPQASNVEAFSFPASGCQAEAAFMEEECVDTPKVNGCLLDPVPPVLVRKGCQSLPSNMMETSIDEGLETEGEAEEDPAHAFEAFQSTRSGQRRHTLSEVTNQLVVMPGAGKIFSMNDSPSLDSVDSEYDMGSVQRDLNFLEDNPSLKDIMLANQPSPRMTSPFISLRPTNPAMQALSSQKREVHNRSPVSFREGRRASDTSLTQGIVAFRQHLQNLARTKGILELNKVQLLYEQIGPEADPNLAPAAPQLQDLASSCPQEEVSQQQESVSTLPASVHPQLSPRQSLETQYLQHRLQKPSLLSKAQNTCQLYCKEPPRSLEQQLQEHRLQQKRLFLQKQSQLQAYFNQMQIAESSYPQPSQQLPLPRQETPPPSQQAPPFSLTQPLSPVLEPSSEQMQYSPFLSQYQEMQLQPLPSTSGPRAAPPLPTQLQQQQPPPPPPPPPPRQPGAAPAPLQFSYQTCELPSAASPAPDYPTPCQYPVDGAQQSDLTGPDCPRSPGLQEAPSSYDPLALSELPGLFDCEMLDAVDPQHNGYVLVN

[17] = molecular target: Serine/threonine-protein kinase BRSK1 (Homo sapiens) (UniProt Q8TDC3); conditions: Compound concentration 1000.0 nM
Rattus norvegicus = organism: Rattus norvegicus; conditions: Compound concentration 10.0 uM
[18] = molecular target: Beta-3 adrenergic receptor (Homo sapiens) (UniProt P13945); conditions: Compound concentration 10.0 uM
[19] = molecular target: Mitogen-activated protein kinase kinase kinase 15 (Homo sapiens) (UniProt Q6ZN16); conditions: Compound concentration 1000.0 nM
[20] = molecular target: Phosphorylase b kinase regulatory subunit alpha, liver isoform (Homo sapiens) (UniProt P46019); conditions: Compound concentration 1000.0 nM
[21] = molecular target: Mast/stem cell growth factor receptor Kit (Homo sapiens) (UniProt P10721); conditions: Compound concentration 1000.0 nM
[22] = molecular target: Interleukin-1 receptor-associated kinase 4 (Homo sapiens) (UniProt Q9NWZ3); conditions: Compound concentration 1000.0 nM
[23] = molecular target: Serine/threonine-protein kinase NIM1 (Homo sapiens) (UniProt Q8IY84); conditions: Compound concentration 1000.0 nM
[24] = molecular target: BMP-2-inducible protein kinase (Homo sapiens) (UniProt Q9NSY1); conditions: Compound concentration 1000.0 nM
[25] = molecular target: Serine/threonine-protein kinase PRP4 homolog (Homo sapiens) (UniProt Q13523); conditions: Compound concentration 1000.0 nM
[26] = molecular target: 5-hydroxytryptamine receptor 2B (Homo sapiens) (UniProt P41595); conditions: Compound concentration 10.0 uM
[27] = tested on: Fibroblast growth factor receptor 3 (Homo sapiens), P22607 [G697C]; conditions: Compound concentration 1000.0 nM
[28] = tested on: Receptor-type tyrosine-protein kinase FLT3 (Homo sapiens), P36888 [D835Y]; conditions: Compound concentration 1000.0 nM
[29] = molecular target: Serine/threonine-protein kinase WNK3 (Homo sapiens) (UniProt Q9BYP7); conditions: Compound concentration 1000.0 nM
[30] = molecular target: Cyclin-dependent kinase 11A (Homo sapiens) (UniProt Q9UQ88); conditions: Compound concentration 1000.0 nM
[31] = molecular target: Dual specificity mitogen-activated protein kinase kinase 3 (Homo sapiens) (UniProt P46734); conditions: Compound concentration 1000.0 nM
Dual specificity mitogen-activated protein kinase kinase 3 (Homo sapiens), sequence (P46734 whole entry): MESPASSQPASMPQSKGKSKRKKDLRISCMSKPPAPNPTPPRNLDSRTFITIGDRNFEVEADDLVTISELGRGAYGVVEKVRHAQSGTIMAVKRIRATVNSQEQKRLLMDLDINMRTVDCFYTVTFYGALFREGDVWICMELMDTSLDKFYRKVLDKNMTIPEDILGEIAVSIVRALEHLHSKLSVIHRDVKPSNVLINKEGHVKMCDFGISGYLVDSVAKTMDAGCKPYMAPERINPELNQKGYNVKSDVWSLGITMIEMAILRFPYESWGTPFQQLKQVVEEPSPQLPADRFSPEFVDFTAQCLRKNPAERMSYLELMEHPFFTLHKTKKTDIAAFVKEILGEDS

[32] = tested on: Epidermal growth factor receptor (Homo sapiens), P00533 [L858R]; conditions: Compound concentration 1000.0 nM
[33] = molecular target: Serine/threonine-protein kinase Nek1 (Homo sapiens) (UniProt Q96PY6); conditions: Compound concentration 1000.0 nM
Serine/threonine-protein kinase Nek1 (Homo sapiens), sequence (Q96PY6 whole entry): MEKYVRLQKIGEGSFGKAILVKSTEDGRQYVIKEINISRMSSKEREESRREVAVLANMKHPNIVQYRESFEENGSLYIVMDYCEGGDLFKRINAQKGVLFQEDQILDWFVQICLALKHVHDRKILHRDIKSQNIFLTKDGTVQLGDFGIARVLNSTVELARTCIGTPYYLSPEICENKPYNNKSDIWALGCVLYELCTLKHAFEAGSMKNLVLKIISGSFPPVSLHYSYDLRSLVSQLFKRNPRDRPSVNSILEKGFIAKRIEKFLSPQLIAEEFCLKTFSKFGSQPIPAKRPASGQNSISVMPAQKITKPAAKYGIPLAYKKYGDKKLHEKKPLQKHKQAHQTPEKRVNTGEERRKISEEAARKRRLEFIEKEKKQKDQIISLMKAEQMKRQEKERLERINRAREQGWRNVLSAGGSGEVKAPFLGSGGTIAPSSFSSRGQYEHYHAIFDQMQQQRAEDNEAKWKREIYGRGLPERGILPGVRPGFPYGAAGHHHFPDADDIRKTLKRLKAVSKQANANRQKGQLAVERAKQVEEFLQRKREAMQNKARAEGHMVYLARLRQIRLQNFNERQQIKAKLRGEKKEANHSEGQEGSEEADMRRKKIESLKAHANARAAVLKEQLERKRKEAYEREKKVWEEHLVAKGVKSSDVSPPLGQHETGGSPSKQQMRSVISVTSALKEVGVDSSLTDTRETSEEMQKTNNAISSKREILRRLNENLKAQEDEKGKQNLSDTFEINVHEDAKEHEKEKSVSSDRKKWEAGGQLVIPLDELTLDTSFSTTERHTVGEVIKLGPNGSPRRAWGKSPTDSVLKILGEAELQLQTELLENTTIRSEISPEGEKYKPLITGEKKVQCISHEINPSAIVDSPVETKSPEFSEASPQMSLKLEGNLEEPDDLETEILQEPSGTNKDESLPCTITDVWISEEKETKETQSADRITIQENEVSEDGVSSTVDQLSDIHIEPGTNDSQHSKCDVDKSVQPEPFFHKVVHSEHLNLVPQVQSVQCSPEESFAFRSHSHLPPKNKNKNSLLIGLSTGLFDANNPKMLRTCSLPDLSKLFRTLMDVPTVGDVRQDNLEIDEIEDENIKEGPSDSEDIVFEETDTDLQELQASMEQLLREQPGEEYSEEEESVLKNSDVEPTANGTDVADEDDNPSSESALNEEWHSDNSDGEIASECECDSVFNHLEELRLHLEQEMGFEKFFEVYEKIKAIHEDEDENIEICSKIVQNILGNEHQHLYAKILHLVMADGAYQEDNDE

[34] = molecular target: Interferon-induced, double-stranded RNA-activated protein kinase (Homo sapiens) (UniProt P19525); conditions: Compound concentration 1000.0 nM
[35] = molecular target: Alpha-1B adrenergic receptor (Homo sapiens) (UniProt P35368); conditions: Compound concentration 10.0 uM
[36] = molecular target: Hepatocyte growth factor receptor (Homo sapiens) (UniProt P08581); conditions: Compound concentration 1000.0 nM
[37] = molecular target: Serine/threonine-protein kinase Sgk1 (Homo sapiens) (UniProt O00141); conditions: Compound concentration 1000.0 nM
[38] = molecular target: Ephrin type-A receptor 8 (Homo sapiens) (UniProt P29322); conditions: Compound concentration 1000.0 nM
Ephrin type-A receptor 8 (Homo sapiens), sequence (P29322 whole entry): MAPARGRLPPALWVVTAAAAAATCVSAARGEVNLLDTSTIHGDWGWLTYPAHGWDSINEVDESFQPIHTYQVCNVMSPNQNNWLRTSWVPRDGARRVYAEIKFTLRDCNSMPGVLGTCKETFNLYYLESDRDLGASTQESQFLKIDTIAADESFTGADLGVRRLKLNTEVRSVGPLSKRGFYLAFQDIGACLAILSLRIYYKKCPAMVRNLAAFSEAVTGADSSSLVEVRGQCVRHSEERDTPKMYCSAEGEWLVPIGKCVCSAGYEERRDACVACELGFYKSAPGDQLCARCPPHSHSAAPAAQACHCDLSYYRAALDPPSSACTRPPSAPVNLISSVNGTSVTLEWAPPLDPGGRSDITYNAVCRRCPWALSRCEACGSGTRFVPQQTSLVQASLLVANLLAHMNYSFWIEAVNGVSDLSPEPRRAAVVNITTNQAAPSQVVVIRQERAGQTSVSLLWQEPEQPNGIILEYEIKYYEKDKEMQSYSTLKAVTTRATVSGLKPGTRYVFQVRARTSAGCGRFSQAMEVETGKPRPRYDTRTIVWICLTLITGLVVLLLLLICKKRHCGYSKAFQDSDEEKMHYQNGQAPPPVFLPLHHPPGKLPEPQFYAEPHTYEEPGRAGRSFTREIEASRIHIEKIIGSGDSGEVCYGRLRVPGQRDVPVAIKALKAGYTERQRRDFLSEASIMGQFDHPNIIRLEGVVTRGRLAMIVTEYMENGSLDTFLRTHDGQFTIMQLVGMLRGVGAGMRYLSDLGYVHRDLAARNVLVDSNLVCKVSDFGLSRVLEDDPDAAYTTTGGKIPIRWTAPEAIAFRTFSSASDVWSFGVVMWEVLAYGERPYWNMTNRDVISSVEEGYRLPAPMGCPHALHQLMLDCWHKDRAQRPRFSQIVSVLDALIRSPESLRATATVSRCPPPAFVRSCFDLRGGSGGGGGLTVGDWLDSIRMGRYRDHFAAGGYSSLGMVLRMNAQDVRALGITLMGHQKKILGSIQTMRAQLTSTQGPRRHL

[39] = molecular target: Cyclin-dependent kinase 8 (Homo sapiens) (UniProt P49336); conditions: Compound concentration 1000.0 nM
[40] = molecular target: Serine/threonine-protein kinase 10 (Homo sapiens) (UniProt O94804); conditions: Compound concentration 1000.0 nM
[41] = molecular target: Tyrosine-protein kinase JAK1 (Homo sapiens) (UniProt P23458); conditions: Compound concentration 1000.0 nM
[42] = molecular target: Tyrosine-protein kinase ITK/TSK (Homo sapiens) (UniProt Q08881); conditions: Compound concentration 1000.0 nM
[43] = molecular target: SRSF protein kinase 3 (Homo sapiens) (UniProt Q9UPE1); conditions: Compound concentration 1000.0 nM
[44] = tested on: Mast/stem cell growth factor receptor Kit (Homo sapiens), P10721 [D816V]; conditions: Compound concentration 1000.0 nM
[45] = molecular target: Mitogen-activated protein kinase kinase kinase kinase 4 (Homo sapiens) (UniProt O95819); conditions: Compound concentration 1000.0 nM

CC(=O)C1=C(C)N(c2cccc(C(F)(F)F)c2)C(=O)N[C@@H]1c1ccc(C#N)nc1 [BAY-678]
inactive: residual activity [1] 99.6% | residual activity [2] 100% | residual activity [3] 93.8% | residual activity [4] 71.1% | residual activity [5] 100% | residual activity [6] 95.7% | residual activity [7] 67.8% | residual activity [8] 98.9% | inhibition [9] -2.61% | residual activity [10] 94.3% | residual activity [11] 85.8% | residual activity [12] 100% | residual activity [13] 100% | residual activity [14] 100% | residual activity [15] 100% | residual activity [16] 87.8% | residual activity [17] 100% | inhibition (Rattus norvegicus) 20% | inhibition [18] -0.551% | residual activity [19] 100% | residual activity [20] 80.8% | residual activity [21] 83.8% | residual activity [22] 100% | residual activity [23] 83.5% | residual activity [24] 100% | residual activity [25] 100% | inhibition [26] 6.06% | residual activity [27] 100% | residual activity [28] 93.9% | residual activity [29] 100% | residual activity [30] 95.7% | residual activity [31] 95.2% | residual activity [32] 80.8% | residual activity [33] 100% | residual activity [34] 83.4% | inhibition [35] -1.17% | residual activity [36] 98.1% | residual activity [37] 100% | residual activity [38] 100% | residual activity [39] 65.3% | residual activity [40] 84.5% | residual activity [41] 100% | residual activity [42] 90.4% | residual activity [43] 100% | residual activity [44] 100% | residual activity [45] 99.3%
